Assay results reported in US20080032418A1, “Cell Free Assay Systems For Identifying A Substance Of Interest” (priority 2003, published 2008).

Experiments:
[1] = system: any of the receptor molecules described in example 1; settings: 1.1 μM receptor, 2.5 μM compound 1, overnight at 4° C., Superose 6 gel filtration, excitation 485 nm, emission 535 nm
Method: This example describes the chelation of the compound of example 4 to any of the receptor molecules described in example 1 and purification of the receptor-perylene complexes by gel filtration chromatography.
The receptor was affinity purified, following standard methods, and 1.1 μM of the molecule was combined with 2.5 μM of compound 1, in a total volume of 0.5 ml. The materials were incubated on a rocking platform, overnight, at 4° C. The mixture was then loaded onto a 20 ml column of Superose 6 Prep gel filtration media, and washed with running buffer (20 mM Tris, pH 7.4, 150 mM NaCl, 0.05% maltoside/0.01% CHS), to remove any unbound perylene. A total of 60 separate, 0.5 ml fractions were collected. A portion of each fraction was loaded into 60 wells of a 96 well plate, and fluorescence was measured at an excitation of 485 nm, and emission of 535 nm. Since the fluorescence quantum yield of perylene bound to receptor differs from that of unbound perylene, fluorescence was also measured after dissociating receptor-perylene complexes by adding imidazole to a final concentration of 0.5M to each of the fractions. A portion of each column fraction was loaded onto denaturing polyacrylamide gel, separated by electrophoreses, transferred to PVDF membranes, and receptor protein containing fractions were identified, using anti-MBP antibodies.

[2] = target: T1, serotonin receptor 5HT2C with a C-terminal His tag (Rattus norvegicus, UniProt P08909); test: immunoprecipitation binding assay (anti-MBP, protein A beads, imidazole elution, fluorescence); settings: receptor 0.2 μM, perylene 0.4 μM, overnight at 4° C.; FIGS. 5-7
T1 construct: made in house; host or cells: bacteria (E. coli is named as the preferred host for the MBP system)
T1 sequence (P08909 with tags, fused parts or gaps): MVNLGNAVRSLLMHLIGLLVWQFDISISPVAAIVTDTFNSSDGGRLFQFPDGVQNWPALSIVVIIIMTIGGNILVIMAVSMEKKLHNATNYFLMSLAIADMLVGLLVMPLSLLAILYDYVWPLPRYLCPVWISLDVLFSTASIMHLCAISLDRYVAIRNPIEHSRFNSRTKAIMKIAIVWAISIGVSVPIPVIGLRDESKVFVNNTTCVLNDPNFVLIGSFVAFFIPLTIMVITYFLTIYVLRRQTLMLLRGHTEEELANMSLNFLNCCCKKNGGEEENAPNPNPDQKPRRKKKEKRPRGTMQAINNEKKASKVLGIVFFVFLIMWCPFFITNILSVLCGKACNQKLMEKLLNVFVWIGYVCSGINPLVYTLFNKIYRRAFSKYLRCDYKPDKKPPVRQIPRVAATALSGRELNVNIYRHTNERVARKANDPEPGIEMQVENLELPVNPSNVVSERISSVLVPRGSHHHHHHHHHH
Method: In these experiments, the affinity purified receptor (0.2 μM), and either compound 1, or control glycine-perylene (0.4 μM), were combined, in a total volume of 0.1 ml, and incubated on a rocking platform overnight, at 4° C. Further controls were provided, by taking samples of the two perylene molecules and treating them in the absence of protein.
All washes were retained for fluorescence measurements.
Perylene molecules were eluted from the bead bound proteins using 0.5M imidazole. Fluorescence of all samples and washes was measured, using a spectrofluorometer, excitation at 480 nm, and emission scan at 500-650 nm. Peak fluorescence was detected at 533-535 nm.

CCCCCCC(CCCCCC)N1C(=O)c2ccc3c4ccc5c6c(ccc(c7ccc(c2c37)C1=O)c64)C(=O)N(CCCCC(C(=O)[O-])N(CC(=O)[O-])CC(=O)O)C5=O.[Ni+2] (centres unmarked) [compound 1, N-(1-hexylheptyl)-N′-(nickel (II)-5-(1-carboxyl-1-(N-dicarboxylmethyl)pentyl))perylene-3,4,9,10-tetracarboxylic-diimide]
portion of the total perylene bound to receptor protein [1]: roughly one-third | binding to the receptor (fluorescence following overnight elution with 0.5M imidazole) [2]: bound to the receptor and required elution
